In US5830855A, “Lipodepsipeptides as antifungal and fungicidal agents” (priority 1996, dated 1998):
In brackets after ≈: the same amount, converted by molar mass.

Tests used:
Candida lusitaniae [1] = assay: Broth microdilution MIC; format: cell-based; details: Table 1 (MICs), 2 isolates, 48 hr
Experimental: (§1) Medium: Liquid RPMI 1640 (RPMI) medium with L-glutamine and without sodium bicarbonate (Sigma Chemical Co., R-6504; St. Louis, Mo.) buffered with 0.165M MOPS (34.54 g/liter) was used for in vitro antifungal tests. The medium was adjusted to pH 7.0 with 10M NaOH and filter sterilized.
(§2) Lipodepsipeptide Dilutions: All stock drug solution concentrations were at least 10-fold higher than the highest concentration tested. AmB, ketoconazole, and the test compounds (SR-E, ST-B, and SS-A) were dissolved in sterile distilled water, 0.2N HCl, and 0.001N HCl, respectively. Each stock solution was diluted to 2× the highest concentration of drug tested with RPMI. Two-fold dilutions were made with RPMI medium.
(§3) Preparation of Inoculum Suspensions: On Sabouraud dextose agar (SDA; BBL, Becton and Dickinson and Co., Cockeysville, Md.) all isolates were subcultured at least twice before use to ensure purity and viability. Candida spp. and Saccharomyces cerevisiae were grown for 24 hr at 35° C. Isolates of Cryptococcus neoformans were grown for 48 hr at 35° C. Yeast cells from at least five 1-mm-diameter colonies were suspended in 5 ml of sterile 0.85% saline. The resulting suspension was vortexed for 15 sec. The turbidity of each mixed suspension was measured at 530 nm and adjusted to 1×10^6 to 5×10^6 CFU/ml by the NCCLS spectrophotometric method described by National Committee for Clinical Laboratory Standards. 1992. Reference method for broth dilution antifungal susceptibility testing of yeasts; proposed standard, NCCLS document M27-P (ISBN 1-56238-186-5). NCCLS, Villanova. The final transmission of each yeast suspension ranged from 85-87%.
(§4) Aspergillus fumigatus and Mucor spp. were grown for 1 wk at 35° C. The dermatophytes, Microsporum spp. and Trichophyton spp., were grown for two wk at 30° C. Fungal spores were washed from the plates of all good spore formers (A. fumigatus, Mucor spp., Microsporum canis and Trichophyton spp.) by placing 5 ml of 0.85% saline with 0.2% Tween 80 on the plates and mixing with an inoculating loop. The spore/mycelium suspension was drawn off with a pipette and allowed to settle for at least 5 min. For the poor spore-forming Microsporum audouinii, the procedure was the same except the spore/mycelial suspension was homogenized with a ground glass tissue homogenizer and then allowed to settle for at least 5 min. A small amount of the supernatant was transferred to 5 ml of sterile saline and vortexed. The stock suspensions of all filamentous fungi were measured at 530 nm and adjusted to 85-87% transmission. The concentration (1×10^6 to 5×10^6 CFU/ml) was determined by hemacytometer count or plate count on SDA. All stock suspensions were diluted 1000-fold with RPMI, or 2× the final desired test inocula. The 2× inoculum was diluted 1:1 when the wells were inoculated, and the desired inoculum size was achieved.
(§5) Broth Microdilution Test: Broth microdilution tests were performed using sterile, disposable, multiwell microdilution plates (96 round U-bottom wells) (Falcon 3077; Becton and Dickinson Labware, Lincoln Park, N.J.). The drugs (2× concentrations) were dispensed into the wells of rows number 1 to 10 of the microdilution plates in 100 μl volumes from highest drug concentration to lowest drug concentration. Each well was inoculated with 100 μl of the corresponding 2× concentrated fungal suspension. The wells of row 11 contained the inoculum with drug-free media as a positive growth control and the wells of row 12 contained uninoculated-drug-free medium as a sterility control.
(§6) Incubation and Scoring of MIC: All cultures were incubated without shaking at the temperature used during subculture. Incubation times were 48 hr for Candida spp., S. cerevisiae, A. fumigatus, and Mucor spp; 72 hr for C. neoformans; and 7 days for Microsporum and Trichophyton spp. […]

Mucor spp. [2] = assay: Broth microdilution MIC; format: cell-based; details: Table 1 (MICs), 5 isolates, 48 hr
Experimental: as §1, §2, §3, §4, §5, §6

Microsporum spp. [3] = assay: Broth microdilution MIC; format: cell-based; details: Table 1 (MICs), 2 isolates, 7 days
Experimental: as §1, §2, §3, §4, §5, §6

Aspergillus fumigatus [4] = assay: Broth microdilution MIC; format: cell-based; details: Table 1 (MICs), 16 isolates, 48 hr
Experimental: as §1, §2, §3, §4, §5, §6

Trichophyton spp. [5] = assay: Broth microdilution MIC; format: cell-based; details: Table 1 (MICs), 3 isolates, 7 days
Experimental: as §1, §2, §3, §4, §5, §6

Candida krusei [6] = assay: Broth microdilution MIC; format: cell-based; details: Table 1 (MICs), 2 isolates, 48 hr
Experimental: as §1, §2, §3, §4, §5, §6

Candida tropicalis [7] = assay: Broth microdilution MIC; format: cell-based
Experimental: as §1, §2, §3, §4, §5, §6

Candida parapsilosis [8] = assay: Broth microdilution MIC; format: cell-based; details: Table 1 (MICs), 2 isolates, 48 hr
Experimental: as §1, §2, §3, §4, §5, §6

Candida albicans = assay: Broth microdilution MIC; format: cell-based; details: Table 1 (MICs); Candida albicans, 20 isolates; RPMI pH 7.0, 48 hr; Ktz read at score 2, others at score 0
Experimental: as §1, §2, §3, §4, §5, §6

Candida kefyr [9] = assay: Broth microdilution MIC; format: cell-based; details: Table 1 (MICs), 1 isolate, 48 hr
Experimental: as §1, §2, §3, §4, §5, §6

Cryptococcus neoformans [10] = assay: Broth microdilution MIC; format: cell-based
Experimental: as §1, §2, §3, §4, §5, §6

Candida rugosa [11] = assay: Broth microdilution MIC; format: cell-based
Experimental: as §1, §2, §3, §4, §5, §6

Saccharomyces cerevisiae [12] = assay: Broth microdilution MIC; format: cell-based; details: Table 1 (MICs), 1 strain tested more than once (control ATCC 36375), 48 hr
Experimental: as §1, §2, §3, §4, §5, §6

fungal isolates = assay: Fungicidal activity (MFC), fungal isolates overall; format: cell-based, fungi; details: Table 2 organisms
Experimental: as §1, §2
(§7) Preparation of Inoculum Suspensions: On Sabouraud dextose agar (SDA; BBL, Becton and Dickinson and Co., Cockeysville, Md.) all isolates were subcultured at least twice before use to ensure purity and viability. […] The turbidity of each mixed suspension was measured at 530 nm and adjusted to 1×10^6 to 5×10^6 CFU/ml by the NCCLS spectrophotometric method described by National Committee for Clinical Laboratory Standards. […]
(§8) Aspergillus fumigatus and Mucor spp. were grown for 1 wk at 35° C. […] The stock suspensions of all filamentous fungi were measured at 530 nm and adjusted to 85-87% transmission. The concentration (1×10^6 to 5×10^6 CFU/ml) was determined by hemacytometer count or plate count on SDA. […]

Candida lusitaniae [13] = assay: Minimum Fungicidal Concentration (MFC); format: cell-based; details: Table 2, 2 isolates, 24 hr
Experimental: as §1, §2, §3, §4, §5, §6

Mucor spp. [14] = assay: Minimum Fungicidal Concentration (MFC); format: cell-based; details: Table 2, 5 isolates, 24 hr
Experimental: as §1, §2, §3, §4, §5, §6

Microsporum spp. [15] = assay: Minimum Fungicidal Concentration (MFC); format: cell-based; details: Table 2, 2 isolates, 7 d
Experimental: as §1, §2, §3, §4, §5, §6

Aspergillus fumigatus [16] = assay: Minimum Fungicidal Concentration (MFC); format: cell-based; details: Table 2, 16 isolates, 48 hr
Experimental: as §1, §2, §3, §4, §5, §6

Trichophyton spp. [17] = assay: Minimum Fungicidal Concentration (MFC); format: cell-based; details: Table 2, 3 isolates, 7 d
Experimental: as §1, §2, §3, §4, §5, §6

Candida krusei [18] = assay: Minimum Fungicidal Concentration (MFC); format: cell-based; details: Table 2, 2 isolates, 24 hr
Experimental: as §1, §2, §3, §4, §5, §6

Candida tropicalis [19] = assay: Minimum Fungicidal Concentration (MFC); format: cell-based; details: Table 2, 2 isolates, 24 hr
Experimental: as §1, §2, §3, §4, §5, §6

Candida parapsilosis [20] = assay: Minimum Fungicidal Concentration (MFC); format: cell-based; details: Table 2, 2 isolates, 24 hr
Experimental: as §1, §2, §3, §4, §5, §6

Candida kefyr [21] = assay: Minimum Fungicidal Concentration (MFC); format: cell-based; details: Table 2, 1 isolate, 24 hr
Experimental: as §1, §2, §3, §4, §5, §6

Cryptococcus neoformans [22] = assay: Minimum Fungicidal Concentration (MFC); format: cell-based; details: Table 2, 14 isolates, 48 hr
Experimental: as §1, §2, §3, §4, §5, §6

Candida rugosa [23] = assay: Minimum Fungicidal Concentration (MFC); format: cell-based; details: Table 2, 2 isolates, 24 hr
Experimental: as §1, §2, §3, §4, §5, §6

Saccharomyces cerevisiae [24] = assay: Minimum Fungicidal Concentration (MFC); format: cell-based; details: Table 2, 1 strain tested more than once, 24 hr
Experimental: as §1, §2, §3, §4, §5, §6

[25] = system: clinical isolates (fungi); assay: Broth microdilution MIC, fungal isolates overall; format: cell-based; details: range over all clinical isolates
Source text: Most of the fungal strains used in the tests were clinical isolates obtained from the University of Texas Health Science Center at San Antonio Fungus Testing Laboratory (San Antonio, Tex.) and the remaining isolates were ATCC strains.
as §1
Lipodepsipeptide Dilutions: All stock drug solution concentrations were at least 10-fold higher than the highest concentration tested. […]
as §7, §8

C[C@@H]1[C@H](O)[C@@H](C)/C=C/C=C/C=C/C=C/C=C/C=C/C=C/[C@H](O[C@@H]2O[C@H](C)[C@@H](O)[C@H](N)[C@@H]2O)C[C@@H]2O[C@](O)(C[C@@H](O)C[C@@H](O)[C@H](O)CC[C@@H](O)C[C@@H](O)CC(=O)O[C@H]1C)C[C@H](O)[C@H]2C(=O)O [AmB, amphotericin B, reference compound]
MIC range (Candida lusitaniae [1]): 0.3 µg/mL (≈ 0.325 µM) | MIC range (Mucor spp. [2]): 0.02 to 0.15 µg/mL | MIC range (Microsporum spp. [3]): 0.04 to 0.3 µg/mL | MIC range (Aspergillus fumigatus [4]): 0.15 to 1.25 µg/mL | MIC range (Trichophyton spp. [5]): 0.3 to 0.6 µg/mL | MIC (μg/ml) range (Candida krusei [6]): 0.3 to 0.6 µg/mL | MIC (μg/ml) range (Candida tropicalis [7]; Table 1 (MICs), Candida tropicalis, 2 isolates, 48 hr): 0.3 to 1.25 µg/mL | susceptibility of one strain of C. tropicalis (Candida tropicalis [7]; one strain of C. tropicalis): resistance | MIC range (Candida parapsilosis [8]): 0.6 µg/mL (≈ 0.649 µM) | MIC range (Candida albicans): 0.04 to 0.3 µg/mL | MIC (μg/ml) range (Candida kefyr [9]): 0.3 µg/mL (≈ 0.325 µM) | MIC range (Cryptococcus neoformans [10]; Table 1 (MICs), Cryptococcus neoformans, 14 isolates, 72 hr): 0.08 to 1.25 µg/mL | MIC, one strain of C. neoformans (Cryptococcus neoformans [10]; one strain of C. neoformans, very sensitive to ST-B, somewhat resistant to AmB): 1.25 µg/mL | MIC range (Candida rugosa [11]; Table 1 (MICs), Candida rugosa, 2 isolates, 48 hr): 0.3 to 1.25 µg/mL | susceptibility of one strain of C. rugosa (Candida rugosa [11]; one strain of C. rugosa (AmB-resistant)): resistance | MFC (μg/ml) range (Saccharomyces cerevisiae [12]): 0.3 µg/mL (≈ 0.325 µM) | fungicidal activity (fungal isolates): fungicidal activity against most of the strains tested | MFC (μg/ml) range (Candida lusitaniae [13]): 0.6 µg/mL (≈ 0.649 µM) | MFC (μg/ml) range (Mucor spp. [14]): ≤0.02 to 0.3 µg/mL | MFC (μg/ml) range (Microsporum spp. [15]): 0.08 to 0.3 µg/mL | MFC (μg/ml) range (Aspergillus fumigatus [16]): 0.6 to 2.5 µg/mL | MFC (μg/ml) range (Trichophyton spp. [17]): 0.3 to 0.6 µg/mL | MFC (μg/ml) range (Candida krusei [18]): 0.6 µg/mL (≈ 0.649 µM) | MFC (μg/ml) range (Candida tropicalis [19]): 0.6 to 1.25 µg/mL | MFC (μg/ml) range (Candida parapsilosis [20]): 1.25 µg/mL (≈ 1.35 µM) | MFC (μg/ml) range (Candida kefyr [21]): 0.3 µg/mL (≈ 0.325 µM) | MFC (μg/ml) range (Cryptococcus neoformans [22]): 0.15 to 1.25 µg/mL | MFC (μg/ml) range (Candida rugosa [23]): 0.6 to 2.5 µg/mL | MFC (μg/ml) range (Saccharomyces cerevisiae [24]): 1.25 µg/mL (≈ 1.35 µM) | susceptibility (MIC) of the clinical isolates [25]: 0.02-1.25 g/ml
